# From patent publication US9113629B2, “4-amino-6-(4-substituted-phenyl)-picolinates and 6-amino-2-(4-substituted-phenyl)-pyrimidine-4-carboxylates and their use as herbicides” (DOW AGROSCIENCES LLC, priority 2013, dated 2015)
# Where two headings read alike, the source gives them in different places.
# How the values were obtained:
# [1] = test system: Key Broadleaf Weed and Crop Species; assay: Post-emergent Test II herbicidal activity (Table 5); type: in vivo; conditions: post-emergence, 336 h, 14 days after application; for pest or weed control at 70 g/ha: application rate 70 g ai/ha; for pest or weed control at 140 g/ha: application rate 140 g ai/ha
# Outline: (§1)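 Test species were raised 7–21 d under greenhouse conditions until reaching the first or second true leaf, sprayed with formulated compound at 187 L/ha, and kept subirrigated to avoid wash-off. Fourteen days later, damage was rated visually on a 0–100% scale against untreated plants.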
# [2] = test system: Key Grass and Sedge Weeds as well as Grass Crops; assay: Post-emergent Test II herbicidal activity (Table 6); type: in vivo; conditions: post-emergence, 336 h; for pest or weed control at 70 g/ha: 70 g ai/ha; for pest or weed control at 140 g/ha: 140 g ai/ha
# Outline: as §1
# [3] = ABUTH: velvetleaf (Abutilon theophrasti), read-out: Visual Growth Reduction (%) 14 Days After Application, ABUTH
# [4] = AMARE: redroot pigweed (Amaranthus retroflexus), read-out: Visual Growth Reduction (%) 14 Days After Application, AMARE
# [5] = BRSNN: oilseed-rape, canola (Brassica napus), read-out: Visual Growth Reduction (%) 14 Days After Application, BRSNN
# [6] = CHEAL: lambsquarters (Chenopodium album), read-out: Visual Growth Reduction (%) 14 Days After Application, CHEAL
# [7] = EPHHL: wild poinsettia (Euphorbia heterophylla), read-out: Visual Growth Reduction (%) 14 Days After Application, EPHHL
# [8] = HELAN: sunflower (Helianthus annuus), read-out: Visual Growth Reduction (%) 14 Days After Application, HELAN
# [9] = VIOTR: wild pansy (Viola tricolor), read-out: Visual Growth Reduction (%) 14 Days After Application, VIOTR
# [10] = CYPES: yellow nutsedge (Cyperus esculentus), read-out: Visual Growth Reduction (%) 14 Days After Application, CYPES
# [11] = DIGSA: crabgrass (Digitaria sanguinalis), read-out: Visual Growth Reduction (%) 14 Days After Application, DIGSA
# [12] = ECHCG: barnyardgrass (Echinochloa crus-galli), read-out: Visual Growth Reduction (%) 14 Days After Application, ECHCG
# [13] = ORYSA: rice (Oryza sativa), crop, read-out: Visual Growth Reduction (%) 14 Days After Application, ORYSA
# [14] = SETFA: giant foxtail (Setaria faberi), read-out: Visual Growth Reduction (%) 14 Days After Application, SETFA
# [15] = SORVU: grain sorghum (Sorghum vulgare), read-out: Visual Growth Reduction (%) 14 Days After Application, SORVU
# [16] = TRZSS (wheat, Triticum aestivum), crop, read-out: Visual Growth Reduction (%) 14 Days After Application, TRZSS
# [17] = ZEAMX: maize, corn (Zea mays), crop, read-out: Visual Growth Reduction (%) 14 Days After Application, ZEAMX
smiles,measurement,setting,value
N#Cc1ccc(-c2nc(C(=O)O)c(Cl)c(N)c2F)cc1 [Compound 39],pest or weed control at 70 g/ha,[1]; [3],30 to 44%
same,pest or weed control at 140 g/ha,[1]; [3],60 to 74%
same,pest or weed control at 70 g/ha,[1]; [4],0 to 29%
same,pest or weed control at 140 g/ha,[1]; [4],0 to 29%
same,pest or weed control at 70 g/ha,[1]; [5],0 to 29%
same,pest or weed control at 140 g/ha,[1]; [5],30 to 44%
same,pest or weed control at 70 g/ha,[1]; [6],85 to 94%
same,pest or weed control at 140 g/ha,[1]; [6],95 to 100%
same,pest or weed control at 70 g/ha,[1]; [7],85 to 94%
same,pest or weed control at 140 g/ha,[1]; [7],95 to 100%
same,pest or weed control at 70 g/ha,[1]; [8],95 to 100%
same,pest or weed control at 140 g/ha,[1]; [8],95 to 100%
same,pest or weed control at 70 g/ha,[1]; [9],30 to 44%
same,pest or weed control at 140 g/ha,[1]; [9],30 to 44%
same,pest or weed control at 70 g/ha,[2]; [10],60 to 74%
same,pest or weed control at 140 g/ha,[2]; [10],75 to 84%
same,pest or weed control at 70 g/ha,[2]; [11],30 to 44%
same,pest or weed control at 140 g/ha,[2]; [11],45 to 59%
same,pest or weed control at 70 g/ha,[2]; [12],85 to 94%
same,pest or weed control at 140 g/ha,[2]; [12],85 to 94%
same,pest or weed control at 70 g/ha,[2]; [13],0 to 29%
same,pest or weed control at 140 g/ha,[2]; [13],0 to 29%
same,pest or weed control at 70 g/ha,[2]; [14],0 to 29%
same,pest or weed control at 140 g/ha,[2]; [14],30 to 44%
same,pest or weed control at 70 g/ha,[2]; [15],30 to 44%
same,pest or weed control at 140 g/ha,[2]; [15],60 to 74%
same,pest or weed control at 70 g/ha,[2]; [16],30 to 44%
same,pest or weed control at 140 g/ha,[2]; [16],45 to 59%
same,pest or weed control at 70 g/ha,[2]; [17],60 to 74%
same,pest or weed control at 140 g/ha,[2]; [17],60 to 74%
